Source: US20120245177A1, “CRYSTALLINE LEVOFOLINIC ACID AND PROCESS FOR ITS PREPARATION” (GMT FINE CHEMICALS SA, priority 2011, published 2012)

What was measured:
Format in all cases: physicochemical
[1] = Long-term stability test (ICH conditions); details: for Assay of Levofolinic acid (% m/m): anhydrous and solvent free basis; for Appearance: specification white to pale yellow powder
Experimental: Two specimens of the product obtained in example 1 are subjected to accelerated stability tests and long-term stability tests, respectively; the tests are carried out according to ICH conditions. Long-term: 25±2° C., 60±5% relative humidity Analytical methods used for the stability studies tests are described in the calcium levofolinate monograph of the European Pharmacopoeia.

[2] = Solubility in water or hydroalcoholic mixtures; details: pH range between 3.0 and 4.5
[3] = Accelerated stability test (ICH conditions); details: accelerated: 40±2° C., 75±5% relative humidity; for Assay of Levofolinic acid (% m/m): anhydrous and solvent free basis; for Appearance: specification white to pale yellow powder
Experimental: Two specimens of the product obtained in example 1 are subjected to accelerated stability tests and long-term stability tests, respectively; the tests are carried out according to ICH conditions. Accelerated: 40±2° C., 75±5% relative humidity Analytical methods used for the stability studies tests are described in the calcium levofolinate monograph of the European Pharmacopoeia.

[4] = long-term: 25±2° C., 60±5% relative humidity, 18 months
[5] = long-term: 25±2° C., 60±5% relative humidity, 24 months
[6] = long-term: 25±2° C., 60±5% relative humidity, 36 months

For `Nc1nc(=O)c2c([nH]1)NC[C@H](CNc1ccc(C(=O)N[C@@H](CCC(=O)O)C(=O)O)cc1)N2C=O` [Example 1, (6S)—N(5)-formyl-5,6,7,8-tetrahydrofolic acid], the “Related substances: PABG (A) (% area)” value [1, 4] was 0.11 % area, the “Sum of all relates substances (% area)” value [1, 4] was 0.63 % area and the “Water content (%)” value [1, 4] was 0.9%. The “Assay of Levofolinic acid (% m/m)” value [1, 4] was 100.2 % m/m, the Appearance [1, 4] was “Conform” and the “Aspect of a 1.0% m/V solution in Tris solution corrected at pH = 8.1: Absorbance at 420 nm” value [1, 5] was 0.06. For the same molecule, the “Content of Dextrofolinic acid (H)” value [1, 5] was <0.10%, the “Related substances: 5-CHO-4H-Pteroic acid (E) (% area)” value [1, 5] was 0.31 % area and the “Related substances: Any individual unknown impurities” value [1, 5] was <0.10 % area. For the same molecule, the “Related substances: Dihydrofolic acid (G) (% area)” value (“Related substances … (G) (% area)” for short) [1, 5] was <0.10 % area, the “Related substances: Folic acid (C) (% area)” value [1, 5] was <0.10 % area and the “Related substances: N^5-N^10-diformyl-THF (B) (% area)” value (“Related substances … (B) (% area)” below) [1, 5] was <0.10 % area. The “Related substances: N^10-CHO-dihydrofolic acid (F) (% area)” value [1, 5] was 0.16 % area, the “Related substances: N^10-CHO-folic acid (D) (% m/m)” value [1, 5] was <0.10 % m/m and the “Related substances: PABG (A) (% area)” value [1, 5] was 0.13 % area. The “Sum of all relates substances (% area)” value [1, 5] was 0.66 % area, the “Water content (%)” value [1, 5] was 0.7% and the “Assay of Levofolinic acid (% m/m)” value [1, 5] was 99.4 % m/m. For the same molecule, the Appearance [1, 5] was “Conform”, the “Aspect of a 1.0% m/V solution in Tris solution corrected at pH = 8.1: Absorbance at 420 nm” value [1, 6] was 0.08 and the “Content of Dextrofolinic acid (H)” value [1, 6] was <0.10%. For the same molecule, the “Optical rotation of a 1.0% m/V solution in Tris solution corrected at pH = 8.1” value [1, 6] was −14.9°, the “Related substances: 5-CHO-4H-Pteroic acid (E) (% area)” value [1, 6] was 0.33 % area and the “Related substances: Any individual unknown impurities” value [1, 6] was <0.10 % area. The “Related substances … (G) (% area)” value [1, 6] was <0.10 % area, the “Related substances: Folic acid (C) (% area)” value [1, 6] was <0.10 % area and the “Related substances … (B) (% area)” value [1, 6] was <0.10 % area. For the same molecule, the “Related substances: N^10-CHO-dihydrofolic acid (F) (% area)” value [1, 6] was 0.25 % area, the “Related substances: N^10-CHO-folic acid (D) (% m/m)” value [1, 6] was <0.10 % m/m and the “Related substances: PABG (A) (% area)” value [1, 6] was 0.16 % area. The “Sum of all relates substances (% area)” value [1, 6] was 0.73 % area, the “Water content (%)” value [1, 6] was 1.0% and the “Assay of Levofolinic acid (% m/m)” value [1, 6] was 99.6 % m/m. The Appearance [1, 6] was “Conform”, the “Stability (conclusion from stability data of tables 2 and 3)” value ([1]; may resist unaltered during a shelf-life of up to three years) was “stable” and the “Stability compared with known forms” value ([1]; versus calcium levofolinate of the known art or levofolinic acid amorphous of U.S. Pat. No. 5,134,235) was “better properties”. For the same molecule, the Solubility [2] was “scarcely soluble”, the “Aspect of a 1.0% w/v solution in Tris buffer solution corrected at pH = 8.1: Absorbance at 420 nm” value (shortened to “Aspect of a 1.0% w/v solution”) ([3]; 0 months) was 0.06 and the “Content of Dextrofolinic acid (H)” value ([3]; 0 months) was <0.10%. For the same molecule, the “Optical rotation of a 1.0% w/v solution in Tris solution corrected at pH = 8.1” value ([3]; 0 months) was −12.8 °, the “Related substances: 5-CHO—4H-Pteroic acid (E) (% area)” value ([3]; 0 months) was 0.36 % area and the “Related substances: Any individual unknown impurities” value ([3]; 0 months) was <0.10 % area. The “Related substances … (G) (% area)” value ([3]; 0 months) was <0.10 % area, the “Related substances: Folic acid (C) (% area)” value ([3]; 0 months) was <0.10 % area and the “Related substances … (B) (% area)” value ([3]; 0 months) was <0.10 % area. For the same molecule, the “Related substances: N^10—CHO-dihydrofolic acid (F) (% area)” value ([3]; 0 months) was <0.10 % area, the “Related substances: N^10—CHO-folic acid (D) (% m/m)” value ([3]; 0 months) was <0.10 % m/m and the “Related substances: PABG (A) (% area)” value ([3]; 0 months) was <0.10 % area. The “Sum of all relates substances (% area)” value ([3]; 0 months) was 0.57 % area, the “Water content (%)” value ([3]; 0 months) was 0.8% and the “Assay of Levofolinic acid (% m/m)” value ([3]; 0 months) was 99.7 % m/m. The Appearance ([3]; 0 months) was “Conform”, the “Aspect of a 1.0% w/v solution” value ([3]; 3 months) was 0.05 and the “Related substances: 5-CHO—4H-Pteroic acid (E) (% area)” value ([3]; 3 months) was 0.37 % area. For the same molecule, the “Related substances: Any individual unknown impurities” value ([3]; 3 months) was <0.10 % area, the “Related substances … (G) (% area)” value ([3]; 3 months) was <0.10 % area and the “Related substances: Folic acid (C) (% area)” value ([3]; 3 months) was <0.10 % area. The “Related substances … (B) (% area)” value ([3]; 3 months) was <0.10 % area, the “Related substances: N^10—CHO-dihydrofolic acid (F) (% area)” value ([3]; 3 months) was 0.16 % area and the “Related substances: N^10—CHO-folic acid (D) (% m/m)” value ([3]; 3 months) was <0.10 % m/m. For the same molecule, the “Related substances: PABG (A) (% area)” value ([3]; 3 months) was <0.10 % area, the “Sum of all relates substances (% area)” value ([3]; 3 months) was 0.63 % area and the “Water content (%)” value ([3]; 3 months) was 0.8%. The “Assay of Levofolinic acid (% m/m)” value ([3]; 3 months) was 99.9 % m/m, the Appearance ([3]; 3 months) was “Conform” and the “Aspect of a 1.0% w/v solution” value ([3]; 6 months) was 0.06. The “Content of Dextrofolinic acid (H)” value ([3]; 6 months) was <0.10%, the “Related substances: 5-CHO—4H-Pteroic acid (E) (% area)” value ([3]; 6 months) was 0.33 % area and the “Related substances: Any individual unknown impurities” value ([3]; 6 months) was <0.10 % area. The “Related substances … (G) (% area)” value ([3]; 6 months) was <0.10 % area, the “Related substances: Folic acid (C) (% area)” value ([3]; 6 months) was <0.10 % area and the “Related substances … (B) (% area)” value ([3]; 6 months) was <0.10 % area. The “Related substances: N^10—CHO-dihydrofolic acid (F) (% area)” value ([3]; 6 months) was 0.25 % area, the “Related substances: N^10—CHO-folic acid (D) (% m/m)” value ([3]; 6 months) was <0.10 % m/m and the “Related substances: PABG (A) (% area)” value ([3]; 6 months) was 0.13 % area. The “Sum of all relates substances (% area)” value ([3]; 6 months) was 0.84 % area, the “Water content (%)” value ([3]; 6 months) was 1.1% and the “Assay of Levofolinic acid (% m/m)” value ([3]; 6 months) was 99.0 % m/m. For the same molecule, the Appearance ([3]; 6 months) was “Conform”.
